Experimental data taken from patent US9597312B2, “Treatment of cognitive disorders associated with abnormal dendritic spines using PKC activators” (Cognitive Research Enterprises, Inc., priority 2010, dated 2017).

Experiments:
PKC [1] = details: K562 cells; cited from earlier work
[2] = test system: cyclin dependent kinase 2 (Cdk2); details: at 5 ng/ml; cited from earlier work
[3] = test system: murine leukemias and solid tumors; details: cited from earlier work
[4] = test system: squamous cell carcinoma and melanoma; details: used topically; cited from earlier work
PKCε = molecular target: T1, PKCε (Homo sapiens, UniProt Q02156); details: cited from earlier work
T1 sequence (Q02156 1-737): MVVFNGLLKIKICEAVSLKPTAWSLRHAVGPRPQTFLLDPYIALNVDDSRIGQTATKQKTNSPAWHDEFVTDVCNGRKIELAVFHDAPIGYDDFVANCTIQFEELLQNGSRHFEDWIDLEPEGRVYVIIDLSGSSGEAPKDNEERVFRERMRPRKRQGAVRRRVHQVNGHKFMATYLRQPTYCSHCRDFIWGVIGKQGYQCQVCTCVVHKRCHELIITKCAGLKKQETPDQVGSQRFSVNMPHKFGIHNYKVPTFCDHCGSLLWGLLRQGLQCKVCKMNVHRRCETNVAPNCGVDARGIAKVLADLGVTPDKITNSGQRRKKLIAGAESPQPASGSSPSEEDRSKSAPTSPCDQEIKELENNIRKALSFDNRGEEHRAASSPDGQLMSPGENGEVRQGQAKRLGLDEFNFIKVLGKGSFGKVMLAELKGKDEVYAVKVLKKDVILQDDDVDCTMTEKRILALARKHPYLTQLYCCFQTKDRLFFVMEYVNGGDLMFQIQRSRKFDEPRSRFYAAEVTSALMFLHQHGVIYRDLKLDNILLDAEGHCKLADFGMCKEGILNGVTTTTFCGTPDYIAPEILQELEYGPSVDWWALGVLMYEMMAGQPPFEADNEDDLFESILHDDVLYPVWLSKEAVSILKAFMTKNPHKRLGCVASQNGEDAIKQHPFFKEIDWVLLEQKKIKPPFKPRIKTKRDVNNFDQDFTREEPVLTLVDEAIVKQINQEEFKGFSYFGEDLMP

protein kinase C = details: specifically the (−)-enantiomer; read-out: EC50 (potency); cited from earlier work
hippocampal CA1 area = assay: Immunohistochemistry of synaptic markers (GAP-43, neurogranin, synaptophysin) in hippocampal CA1 area of Fragile X mice; assay type: in vivo
Description: (§1) Non-treated groups received the same volume of vehicle at the same frequency of administration as the treated groups.
Hippocampal slices at 400 μm thickness were further immersed in the fixative (4% paraformaldehyde in PBS) for 30 min at room temperature and then sectioned at 35 μm thickness by using a vibratome. Sections were then processed for immunohistochemistry as described in Hongpaisan et al., J Neurosci., 2004, 24:10878-10887. Tissue sections were incubated free-floating with primary antibodies against spinophilin (polyclonal IgG; 1:100; Upstate/Millipore), synaptophysin (monoclonal IgG; 1:2,000; Chemicon/Millipore), and/or HuC/D (monoclonal IgG; 1:100; Molecular Probes) at room temperature overnight. For a polyclonal antibody, tissue sections were incubated with Alexa Fluor 568 goat anti-rabbit IgG (1:200; Molecular Probes) for 3 h at room temperature. For monoclonal antibodies, sections were treated with a biotinylated secondary antibody (1:20; Vector Laboratories) for 3 h at room temperature and then with streptavidin conjugated with Alexa Fluor 488 (1:100; Molecular Probes) for 3 h at room temperature. Sections were mounted with […] mounting medium with DAPI to counterstain nuclei (Vector Laboratories) and imaged with the confocal microscope (512 pixels×512 pixels).
(§2) All data were quantified by using the ImageJ program. The appearance of spinophilin and synaptophysin profiles in a 63-μm×63-μm image taken from the superficial part of the stratum radiatum were analyzed with the photographic negative after background subtraction. The total number of spinophilin and synaptophysin granules were then counted by using ImageJ. Synaptophysin intensity was defined in the whole area of a 63-μm×63-μm image. HuC/D immunostaining was quantified by measuring fluorescence intensity in the proximal dendrite portion of each individual CA1 pyramidal neuron. The naive control data were set at 100%, and all other experiment data were defined as the percentage of their control.
(§3) The mice were then sacrificed and hippocampal sections were removed and treated as described in Example 2.

Aβ(1-42) = details: transgenic mice with human AD genes; cited from earlier work
synaptophysin = assay: Synaptophysin immunohistochemistry in hippocampus of aged rats; assay type: in vivo
Description: Under anesthesia (choral hydrate; Sigma-Aldrich; 400 mg/kg body weight, i.p.), rats were perfused through the heart with PBS by gravity to wash out the blood and then lightly fixed with 150 ml of 4% paraformaldehyde in PBS at room temperature, instead of a cold fixative, because hypothermia can reduce the number of dendritic spines. Brains were removed and postfixed for 10 min. Thereafter, hippocampi were isolated from the right brain hemispheres, and dorsal hippocampi were sectioned with a vibratome at 400 μm for DiI staining and immunohistochemistry.
Hippocampal slices at 400 μm thickness were further immersed in the fixative (4% paraformaldehyde in PBS) for 30 min at room temperature and then sectioned at 35 μm thickness by using a vibratome. Sections were then processed for immunohistochemistry as described in Hongpaisan et al., J Neurosci., 2004, 24:10878-10887. […]
as §2, with “Synaptophysin intensity was defined in the whole area of a 63-μm×63-μm image.” left out, “The naive control data were set at 100%, and all other experiment data were defined as the percentage of their control.” left out

[5] = test system: ischemia-induced deficits; details: postischemic/hypoxic treatment; cited from earlier work
FMR1 mice = assay: Spatial water maze in Fragile X (FMR1) mice; assay type: in vivo; details: 20 μg/m^2 tail i.v., 2 doses/week for 13 weeks, vs FMR1 with vehicle p<0.001
Source text: Two types of mice (male, The Jackson Laboratories, ME, USA; 9-10 per group) were used in the study: FVB.129P2-Fmrl^tmlCgr/J (FMR1) and FVB.129P2-Pde6b^+ Tyr^c-ch/AntJ (as the control groups).
as §1
The first training of spatial water maze task began on the 10th day after the last dose. Mice were trained for 8 days (2 trials/day) to find a hidden platform, centered in one of the quadrants and submerged about 2 cm below the water surface. At the start of all trials, mice were placed individually in the water facing the maze wall, using different starting positions each trial, and allowed to swim until they found the platform, where they remained for 20 s, before being returned to their home cages. […] The swim path was recorded with a video-tracking system, which computed latency to the platform, swim distance, and percentage of time spent in the quadrants. After the training trials, a probe trial (a quadrant test or retention trial) was performed with the platform removed to assess memory retention for its location by the distance the mouse moved in the quadrants. The video-tracking system tracked the animal's movements in each quadrant during a period of one minute. […]

hippocampal CA1 neurons = assay: DiI staining and confocal microscopy of dendritic spines of hippocampal CA1 neurons in Fragile X mice; assay type: in vivo; details: Fragile X transgenic mice
Description: as §1
The tips of glass electrodes, prepared as used for electrophysiology, were immersed in 5% (wt/vol) 1, 1′-dioctadecyl-3,3,3′,3′-tetramathyl-indocarbocyanineperchlorate (DiI, Molecular Probes/Invitrogen) in dichloromethane (Sigma-Aldrich) and air-dried at room temperature for 30 min. The tips of DiI-coated electrodes were inserted, broken, and left in the strata oriens of the CA1 area of hippocampal sections at […] thickness. After maintenance in PBS at 4° C. overnight to allow DiI to diffuse in the plasma membrane of the CA1 neurons, hippocampal sections were then resectioned to 35 μm thickness and mounted on glass slides, using PBS as the mounting medium. Dendritic spines stained with DiI in the strata radiatum were collected using a Zeiss Axiovert 200M microscope equipped with 510 confocal scanning system at 568 nm/>510 nm (excitation/emission). A stack of confocal images (taken every 0.4 μm) was collected to obtain all dendritic spines of an individual dendritic shaft. During analysis, a stack of images was retrieved with the ImageJ program (National Institutes of Health). Individual spines identified on one image were also verified on adjacent stacked images to approximate the three-dimensional structure of this spine. Those spines, which had head diameters more than three times larger than the diameter of their necks (FIGS. 1 d and e), were identified as mushroom spines. Approximately four to six stacked image sets were obtained from each animal. All image sets were pooled and coded; therefore, images were identified with unknown animal number and unknown treatment (double-blind protocol).
as §3

[6] = test system: mushroom-shaped dendritic spines; details: rats; cited from earlier work
NCI 60 cell line screen = details: cited from earlier work
PKC [7] = details: cited from earlier work

C=C(C)[C@]12C[C@@H](COC(=O)c3ccccc3)[C@@]34OC5(O[C@@H]1[C@@H]3C1O[C@]1(CO)[C@@H](O)[C@@]1(O)[C@H]4[C@@H](C(C)CCCCCC[C@@H]5O)C(C)[C@@H]1OC(=O)c1ccccc1)O2 (some centres unmarked) [Gnidimacrin]
concentration at which it acts as a PKC activator (PKC [1]): ~3 nM | inhibition of Cdk2 [2]: 100% | concentrations of potent antitumor activity [3]: 0.1 to 1 nM

C/C=C(/C)C(=O)O[C@H]1C(C)=C[C@]23C(=O)[C@@H](C=C(CO)[C@@H](O)[C@]12O)[C@H]1[C@@H](C[C@H]3C)C1(C)C [Ingenol-3-angelate]
antitumor activity [4]: possesses antitumor activity

CCCCCC1CC1CC1CC1CCCCCCCC(=O)O (centres unmarked) [DCP-LA, 2-[(2-pentylcyclopropyl)methyl]cyclopropaneoctanoic acid]
concentration of maximal effect on PKCε activation (PKCε): 100 nM

CCCCCCCCc1ccc2c3c(c[nH]c13)C[C@@H](CO)NC(=O)[C@H](C(C)C)N2C [octylindolactam V, Octylindolactam V]
EC50 (protein kinase C): 29 nM

CCC/C=C/C=C/C(=O)O[C@H]1/C(=C/C(=O)OC)C[C@H]2C[C@H]([C@@H](C)O)OC(=O)C[C@H](O)C[C@@H]3C[C@H](OC(C)=O)C(C)(C)[C@](O)(C[C@@H]4C/C(=C/C(=O)OC)C[C@H](/C=C/C(C)(C)[C@]1(O)O2)O4)O3 [Bryostatin 1, bryostatin-1]
postsynaptic membrane density, neurogranin; number of synapses (FIG. 8) (hippocampal CA1 area; Fragile X transgenic mice): can be restored | presynaptic membrane density, GAP-43 (FIG. 7) (hippocampal CA1 area; Fragile X transgenic mice): restored presynaptic membrane density in Fragile X transgenic mice to wild type levels | presynaptic vesicle concentration, synaptophysin fluorescence intensity (FIG. 9) (hippocampal CA1 area; Fragile X transgenic mice): significantly restored, and even enhanced | number of presynaptic axonal boutons, synaptophysin grains (FIG. 9) (hippocampal CA1 area; across experimental conditions): No difference | Aβ(1-42) levels in the brains (Aβ(1-42)): reduce | presence of synaptophysin (FIG. 3) (synaptophysin): increased | ischemia-induced deficits in synaptogenesis, neurotrophic activity, and spatial learning and memory [5]: effectively rescued | learning performance in water maze (FIG. 1) (FMR1 mice): significantly improved the learning performance | filopodia number per 100 μm of dendritic shaft (FIG. 6) (hippocampal CA1 neurons): improved the transformation of filopodia to dendritic spines | mushroom-shaped and total dendritic spines per 100 μm of dendritic shaft (FIG. 5) (hippocampal CA1 neurons): prevented the loss | number and density of dendritic mushroom spines (FIG. 4) (hippocampal CA1 neurons): restored the number and density of dendritic mushroom spines to wild-type levels | number of mushroom-shaped dendritic spines [6]: memory-specific increase

CC1=CC[C@H](C)C(C)(C)[C@@H]1/C=C/C(C)=C/CC[C@@]1(CO)[C@H](CCCO)/C(=C(/C)C=O)CC[C@]1(C)O [Iripallidal]
GI50 (concentration required to inhibit growth by 50%) (NCI 60 cell line screen): micromolar to nanomolar range

CCCCCCCC(=O)O[C@H]1/C(=C/C(=O)OC)C[C@H]2C[C@H](CO)OC(=O)C[C@H](O)C[C@@H]3CCC[C@H](C[C@@H]4CCO[C@H](/C=C/C(C)(C)[C@]1(O)O2)O4)O3 [Analog 1]
affinity for PKC (in words) (PKC [7]): high affinity for PKC
